Values of other authors as cited in patent US20060204571A1, “Stable compositions of bupropion or its pharmaceutically acceptable salts” (Sun Pharmaceutical Industries Limited, priority 2005, published 2006).

Settings: background statement

Structure (SMILES): CC(NC(C)(C)C)C(=O)c1cccc(Cl)c1.Cl (racemic) [Bupropion hydrochloride, (±)-1-(3-chlorophenyl)-2-[(1,1-dimethylethyl)amino]-1-propanone hydrochloride]
- solubility in water (in words): water-soluble
